The values below are quoted from earlier work in US20020086070A1, “Anti-inflammatory and connective tissue repair formulations” (priority 2000, published 2002).

One data set deals with COX-2 over COX-1. Conditions: specificity for COX-2 over COX-1.
The target in data set [1] is cyclooxygenase-2 induction. To be noted: TNFalpha-dependent induction; read-out: IC(50) for suppression of TNFalpha-dependent cyclooxygenase-2 induction.
The subject of data set [2] is arachidonic acid-induced inflammatory ear edema. Conditions: mice.
Another data set relates to skin tumor formation. To be noted: following initiation with a chemical challenge.

With `CC(=O)Oc1ccccc1C(=O)O` [aspirin], in the data set with COX-2 over COX-1, the COX-2 specificity is listed as 0.6.

As for `CC(C)=CCC1=C(O)[C@](O)(CC=C(C)C)C(=O)C(C(=O)CC(C)C)=C1O` [humulon], in data set [1], the IC50 is ~30 nM. Moreover, the “inhibition of arachidonic acid-induced inflammatory ear edema” value in data set [2] is on record as “inhibited”. Also, in the data set with skin tumor formation, the “inhibition of skin tumor formation” value is “inhibited skin tumor formation”.
